According to PubChem BioAssay (NCI):
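Dose response: 5 concentrations. Exposure: 48 h. Format: 96-well plates. Endpoint: linear interpolation; highest concentration if not reached. The concentration for 50% growth inhibition is given as GI50. At the TGI there is no net growth.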

Legend:
Assay in all cases: NCI tumour cell line growth inhibition, 48 h
NCI-H460 lung = system: NCI-H460 lung
NCI/ADR-RES ovarian = system: NCI/ADR-RES ovarian
EKVX NSCLC = system: EKVX NSCLC
A549 NSCLC = system: A549 NSCLC
A498 renal = system: A498 renal
COLO 205 colon = system: COLO 205 colon
CAKI-1 renal = system: CAKI-1 renal
TK-10 renal = system: TK-10 renal
MDA-MB-435 = system: MDA-MB-435
KM12 colon = system: KM12 colon
MALME-3M melanoma = system: MALME-3M melanoma
NCI-H23 lung = system: NCI-H23 lung
T-47D breast = system: T-47D breast
HT29 colon = system: HT29 colon
OVCAR-8 ovarian = system: OVCAR-8 ovarian
SF-539 CNS = system: SF-539 CNS
OVCAR-4 ovarian = system: OVCAR-4 ovarian
SK-MEL-28 melanoma = system: SK-MEL-28 melanoma
HCC-2998 colon = system: HCC-2998 colon
RPMI-8226 leukemia = system: RPMI-8226 leukemia
HL-60(TB) leukemia = system: HL-60(TB) leukemia
HS 578T breast = system: HS 578T breast
PC-3 prostate = system: PC-3 prostate
MDA-MB-231 breast = system: MDA-MB-231 breast
K-562 leukemia = system: K-562 leukemia
SK-MEL-2 melanoma = system: SK-MEL-2 melanoma
UO-31 renal = system: UO-31 renal
SF-268 CNS = system: SF-268 CNS
U251 CNS = system: U251 CNS
MCF7 breast = system: MCF7 breast
DU-145 prostate = system: DU-145 prostate
MOLT-4 leukemia = system: MOLT-4 leukemia
IGROV1 ovarian = system: IGROV1 ovarian
786-0 renal = system: 786-0 renal
HOP-92 NSCLC = system: HOP-92 NSCLC
ACHN renal = system: ACHN renal
HCT-15 colon = system: HCT-15 colon
OVCAR-5 ovarian = system: OVCAR-5 ovarian
SK-OV-3 ovarian = system: SK-OV-3 ovarian
M14 melanoma = system: M14 melanoma
BT-549 breast = system: BT-549 breast
LOX IMVI melanoma = system: LOX IMVI melanoma
SN12C renal = system: SN12C renal
OVCAR-3 ovarian = system: OVCAR-3 ovarian
RXF 393 renal = system: RXF 393 renal
UACC-62 melanoma = system: UACC-62 melanoma
SNB-75 CNS = system: SNB-75 CNS
HOP-62 NSCLC = system: HOP-62 NSCLC
UACC-257 melanoma = system: UACC-257 melanoma
SK-MEL-5 melanoma = system: SK-MEL-5 melanoma
CCRF-CEM leukemia = system: CCRF-CEM leukemia
SW-620 colon = system: SW-620 colon
HCT-116 colon = system: HCT-116 colon
NCI-H522 lung = system: NCI-H522 lung
NCI-H226 lung = system: NCI-H226 lung
SNB-19 CNS = system: SNB-19 CNS
SF-295 CNS = system: SF-295 CNS

Q: How did the GI50 (NCI-H460 lung) turn out when `CNc1nc(-c2ccc3c(N)n[nH]c3c2)cc(N2C[C@@H](C(=O)NC3CCCCC3)CC[C@H]2C)n1` was run?
A: 1.5 µM

Q: What about the TGI (NCI-H460 lung) of the same molecule?
A: 15.7 µM

Q: And the GI50 (NCI/ADR-RES ovarian)?
A: 13.3 µM

Q: And the TGI (NCI/ADR-RES ovarian)?
A: 41.3 µM

Q: What about the GI50 (EKVX NSCLC) of the same molecule?
A: 2.12 µM

Q: And the TGI (EKVX NSCLC)?
A: 15.4 µM

Q: And the GI50 (A549 NSCLC)?
A: 3.37 µM

Q: What about the TGI (A549 NSCLC) of the same molecule?
A: 20.8 µM

Q: What about the GI50 (A498 renal) of the same molecule?
A: 0.301 µM

Q: What about the TGI (A498 renal) of the same molecule?
A: 3.02 µM

Q: What about the GI50 (COLO 205 colon) of the same molecule?
A: 1.54 µM

Q: And the TGI (COLO 205 colon)?
A: 12 µM

Q: What about the GI50 (CAKI-1 renal) of the same molecule?
A: 1.14 µM

Q: And the TGI (CAKI-1 renal)?
A: 20.6 µM

Q: What about the GI50 (TK-10 renal) of the same molecule?
A: 0.366 µM

Q: What about the TGI (TK-10 renal) of the same molecule?
A: 9.46 µM

Q: What about the GI50 (MDA-MB-435) of the same molecule?
A: 1.11 µM

Q: And the TGI (MDA-MB-435)?
A: 14.4 µM

Q: What about the GI50 (KM12 colon) of the same molecule?
A: 8.37 µM

Q: And the TGI (KM12 colon)?
A: 22.4 µM

Q: And the GI50 (MALME-3M melanoma)?
A: 0.302 µM

Q: What about the TGI (MALME-3M melanoma) of the same molecule?
A: 10.7 µM

Q: What about the GI50 (NCI-H23 lung) of the same molecule?
A: 3.69 µM

Q: What about the TGI (NCI-H23 lung) of the same molecule?
A: 20.1 µM

Q: And the GI50 (T-47D breast)?
A: 0.13 µM

Q: And the TGI (T-47D breast)?
A: 5.3 µM

Q: What about the GI50 (HT29 colon) of the same molecule?
A: 2.25 µM

Q: What about the TGI (HT29 colon) of the same molecule?
A: 17.1 µM

Q: What about the GI50 (OVCAR-8 ovarian) of the same molecule?
A: 9.16 µM

Q: What about the TGI (OVCAR-8 ovarian) of the same molecule?
A: 24.7 µM

Q: And the GI50 (SF-539 CNS)?
A: 3.76 µM

Q: What about the TGI (SF-539 CNS) of the same molecule?
A: 17.8 µM

Q: And the GI50 (OVCAR-4 ovarian)?
A: 3.6 µM

Q: What about the TGI (OVCAR-4 ovarian) of the same molecule?
A: 23.1 µM

Q: What about the GI50 (SK-MEL-28 melanoma) of the same molecule?
A: 1.68 µM

Q: What about the TGI (SK-MEL-28 melanoma) of the same molecule?
A: 15.8 µM

Q: And the GI50 (HCC-2998 colon)?
A: 8.53 µM

Q: What about the TGI (HCC-2998 colon) of the same molecule?
A: 21.7 µM

Q: What about the GI50 (RPMI-8226 leukemia) of the same molecule?
A: 2.93 µM

Q: What about the TGI (RPMI-8226 leukemia) of the same molecule?
A: 18.3 µM

Q: What about the GI50 (HL-60(TB) leukemia) of the same molecule?
A: 2.68 µM

Q: What about the TGI (HL-60(TB) leukemia) of the same molecule?
A: 18.5 µM

Q: And the GI50 (HS 578T breast)?
A: 1.06 µM

Q: And the TGI (HS 578T breast)?
A: 8.86 µM

Q: And the GI50 (PC-3 prostate)?
A: 0.405 µM

Q: What about the TGI (PC-3 prostate) of the same molecule?
A: 18.4 µM

Q: And the GI50 (MDA-MB-231 breast)?
A: 2.61 µM

Q: What about the TGI (MDA-MB-231 breast) of the same molecule?
A: 15.7 µM

Q: And the GI50 (K-562 leukemia)?
A: 3.78 µM

Q: And the TGI (K-562 leukemia)?
A: 39 µM

Q: And the GI50 (SK-MEL-2 melanoma)?
A: 1.18 µM

Q: What about the TGI (SK-MEL-2 melanoma) of the same molecule?
A: 8.13 µM

Q: And the GI50 (UO-31 renal)?
A: 0.854 µM

Q: What about the TGI (UO-31 renal) of the same molecule?
A: 13.7 µM

Q: And the GI50 (SF-268 CNS)?
A: 2.98 µM

Q: And the TGI (SF-268 CNS)?
A: 19 µM

Q: And the GI50 (U251 CNS)?
A: 3.88 µM

Q: What about the TGI (U251 CNS) of the same molecule?
A: 17.9 µM

Q: And the GI50 (MCF7 breast)?
A: 0.996 µM

Q: What about the TGI (MCF7 breast) of the same molecule?
A: 11.2 µM

Q: What about the GI50 (DU-145 prostate) of the same molecule?
A: 5.91 µM

Q: And the TGI (DU-145 prostate)?
A: 21.3 µM

Q: What about the GI50 (MOLT-4 leukemia) of the same molecule?
A: 1.84 µM

Q: And the TGI (MOLT-4 leukemia)?
A: > 32.5 µM

Q: And the GI50 (IGROV1 ovarian)?
A: 2.45 µM

Q: What about the TGI (IGROV1 ovarian) of the same molecule?
A: 14.9 µM

Q: And the GI50 (786-0 renal)?
A: 3.28 µM

Q: And the TGI (786-0 renal)?
A: 14.6 µM

Q: And the GI50 (HOP-92 NSCLC)?
A: 0.189 µM

Q: And the TGI (HOP-92 NSCLC)?
A: 3.99 µM

Q: And the GI50 (ACHN renal)?
A: 2.81 µM

Q: What about the TGI (ACHN renal) of the same molecule?
A: 19.9 µM

Q: What about the GI50 (HCT-15 colon) of the same molecule?
A: 4.33 µM

Q: And the TGI (HCT-15 colon)?
A: 19.4 µM

Q: And the GI50 (OVCAR-5 ovarian)?
A: 3.43 µM

Q: And the TGI (OVCAR-5 ovarian)?
A: 16.8 µM

Q: What about the GI50 (SK-OV-3 ovarian) of the same molecule?
A: 0.495 µM

Q: And the TGI (SK-OV-3 ovarian)?
A: 9.97 µM

Q: And the GI50 (M14 melanoma)?
A: 3.02 µM

Q: What about the TGI (M14 melanoma) of the same molecule?
A: 20.1 µM

Q: What about the GI50 (BT-549 breast) of the same molecule?
A: 1.91 µM

Q: What about the TGI (BT-549 breast) of the same molecule?
A: 12.3 µM

Q: What about the GI50 (LOX IMVI melanoma) of the same molecule?
A: 3.8 µM

Q: What about the TGI (LOX IMVI melanoma) of the same molecule?
A: 19.4 µM

Q: What about the GI50 (SN12C renal) of the same molecule?
A: 3.04 µM

Q: And the TGI (SN12C renal)?
A: 20.2 µM

Q: And the GI50 (OVCAR-3 ovarian)?
A: 2.16 µM

Q: What about the TGI (OVCAR-3 ovarian) of the same molecule?
A: 15.6 µM

Q: What about the GI50 (RXF 393 renal) of the same molecule?
A: 1.31 µM

Q: What about the TGI (RXF 393 renal) of the same molecule?
A: 8.78 µM

Q: What about the GI50 (UACC-62 melanoma) of the same molecule?
A: 0.858 µM

Q: And the TGI (UACC-62 melanoma)?
A: 16.3 µM

Q: And the GI50 (SNB-75 CNS)?
A: 0.457 µM

Q: And the TGI (SNB-75 CNS)?
A: 7.23 µM

Q: What about the GI50 (HOP-62 NSCLC) of the same molecule?
A: 3.26 µM

Q: And the TGI (HOP-62 NSCLC)?
A: 17.9 µM

Q: What about the GI50 (UACC-257 melanoma) of the same molecule?
A: 1.3 µM

Q: And the TGI (UACC-257 melanoma)?
A: 16.8 µM

Q: And the GI50 (SK-MEL-5 melanoma)?
A: 2.84 µM

Q: And the TGI (SK-MEL-5 melanoma)?
A: 13.9 µM

Q: What about the GI50 (CCRF-CEM leukemia) of the same molecule?
A: 1.78 µM

Q: And the TGI (CCRF-CEM leukemia)?
A: > 48.1 µM

Q: What about the GI50 (SW-620 colon) of the same molecule?
A: 6.85 µM

Q: What about the TGI (SW-620 colon) of the same molecule?
A: 23.4 µM

Q: What about the GI50 (HCT-116 colon) of the same molecule?
A: 4.4 µM

Q: And the TGI (HCT-116 colon)?
A: 18.8 µM

Q: What about the GI50 (NCI-H522 lung) of the same molecule?
A: 4.52 µM

Q: And the TGI (NCI-H522 lung)?
A: 18.3 µM

Q: What about the GI50 (NCI-H226 lung) of the same molecule?
A: 6.74 µM

Q: What about the TGI (NCI-H226 lung) of the same molecule?
A: 22.7 µM

Q: And the GI50 (SNB-19 CNS)?
A: 4.42 µM

Q: What about the TGI (SNB-19 CNS) of the same molecule?
A: 18 µM

Q: What about the GI50 (SF-295 CNS) of the same molecule?
A: 2.61 µM

Q: And the TGI (SF-295 CNS)?
A: 15.8 µM
